Results on 32 molecules are retold here after US9783536B2, “Nitrogen-containing heterocyclic compound or salt thereof” (FUJIFILM Corporation, priority 2013, dated 2017).

In assay [1] the target is T1, GST fusion human ERK2 protein (Homo sapiens, UniProt P28482).
T1 construct: purchased Carna Biosciences, Inc; host or cells: E. coli expression system
Nature of the assay: ERK2 enzyme assay (2). The conditions noted are these: ERK2 enzyme assay (2); read-out: ERK2 enzyme inhibitory activity (2). Format: biochemical. As to the method:
In an ERK2 enzyme assay, GLUTATHIONE S-TRANSFERASE (GST) FUSION HUMAN ERK2 PROTEIN (manufactured by Carna Biosciences, Inc.), which was produced by using an E. coli expression system, was used.
12 μL of a reaction liquid (1.25 nmol/L ERK2, 100 mmol/L Hepes, 10 mmol/L MgCl2, 1.5 mmol/L DTT, 0.003% Brij35, pH 7.5) including ERK2 protein and a test compound having a predetermined concentration was allowed to stand at room temperature for 15 minutes. Then, 3 μL of a mixture liquid of FL-PEPTIDE8 (5-FAM-IPTSPITTTYFFFKKK-COOH) (manufactured by Caliper Life Sciences), which is substrate peptide, and ATP (manufactured by Sigma-Aldrich Co. LLC.) was added thereto such that the final concentrations thereof became 4.25 μmol/L and 1 mmol/L, respectively, and an enzyme reaction was performed by allowing to stand at 25° C. for 120 minutes.
After the reaction, the enzyme reaction was stopped by adding 30 μL of a reaction stopper liquid (100 mmol/L HEPES, 11.2 mmol/L EDTA, 5.6% Brij35, pH 7.5) including a 0.5% COATING REAGENT 8 (trade name, manufactured by Perkin Elmer Inc.) thereto. Then, phosphorylated peptide and non-phosphorylated peptide were separated using LABCHIP EZ READER (trade name, manufactured by Caliper Life Sciences), and the porportion of the phosphorylated peptide was quantified.
(§1) The inhibitory activities of the compounds were evaluated using IC50 (50% inhibitory concentration). The IC50 was calculated using XLFIT (trade name, manufactured by ID Business Solutions).

The next assay addresses T2, human PI3Kα protein (Homo sapiens, UniProt P42336).
T2 construct: purchased Carna Biosciences, Inc; host or cells: baculovirus expression system
Nature of the assay: PI3Kα enzyme assay (ADP-Glo). Format: biochemical. The conditions noted are these: read-out: PI3Kα enzyme inhibitory activity. How it is done:
In a PI3Kα enzyme assay, a product (manufactured by Carna Biosciences, Inc.) obtained by biotinylating a human PI3Kα protein produced by using a baculovirus expression system was used. In addition, in the detection of enzyme activity, ADP-GLO KINASE ASSAY (trade name, manufactured by PROMEGA Corporation) was used.
10 μL of a reaction liquid (4.5 nmol/L PI3Kα, 40 mmol/L Tris-HCl, 20 mmol/L MgCl2, 0.1% BSA, pH 7.5) including the human PI3Kα protein and a test compound having a predetermined concentration was allowed to stand at room temperature for 15 minutes. Then, 5 μL of a mixture liquid of L-α-phosphatidylinositol 4,5-diphosphate (PIP2) (manufactured by Sigma-Aldrich Co. LLC.) and ATP (manufactured by Sigma-Aldrich Co. LLC.), which are substrates, was added thereto such that final concentrations thereof became 50 μmol/L and 100 μmol/L, respectively, and an enzyme reaction was performed by allowing to stand at 25° C. for 60 minutes.
After the reaction, the enzyme reaction was stopped by adding 15 μL of an ADP-GLO REAGENT (trade name, manufactured by PROMEGA Corporation) thereto and allowing to stand at room temperature for 60 minutes. Then, 30 μL of a KINASE DETECTION REAGENT (trade name, manufactured by PROMEGA Corporation) was added thereto, followed by allowing to stand at room temperature for 40 minutes, and ADP produced by the enzyme reaction was quantified by emission intensity.
ENVISION (trade name, manufactured by Perkin Elmer Inc.) was used for the measurement of the emission intensity.
as §1

Molecules are shown by their SMILES. Bounds are passed on as bounds.

T1 sequence (P28482 whole entry, the tested form may be a part): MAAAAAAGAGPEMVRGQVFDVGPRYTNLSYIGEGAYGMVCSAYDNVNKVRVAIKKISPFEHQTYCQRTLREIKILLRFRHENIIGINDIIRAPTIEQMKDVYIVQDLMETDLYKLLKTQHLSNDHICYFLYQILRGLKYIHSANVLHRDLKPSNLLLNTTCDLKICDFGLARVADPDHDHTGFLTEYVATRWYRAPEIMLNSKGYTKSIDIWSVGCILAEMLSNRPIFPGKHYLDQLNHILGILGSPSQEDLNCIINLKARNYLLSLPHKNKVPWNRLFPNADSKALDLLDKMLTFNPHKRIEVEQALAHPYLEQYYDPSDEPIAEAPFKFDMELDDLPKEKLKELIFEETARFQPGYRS
T2 sequence (P42336 whole entry): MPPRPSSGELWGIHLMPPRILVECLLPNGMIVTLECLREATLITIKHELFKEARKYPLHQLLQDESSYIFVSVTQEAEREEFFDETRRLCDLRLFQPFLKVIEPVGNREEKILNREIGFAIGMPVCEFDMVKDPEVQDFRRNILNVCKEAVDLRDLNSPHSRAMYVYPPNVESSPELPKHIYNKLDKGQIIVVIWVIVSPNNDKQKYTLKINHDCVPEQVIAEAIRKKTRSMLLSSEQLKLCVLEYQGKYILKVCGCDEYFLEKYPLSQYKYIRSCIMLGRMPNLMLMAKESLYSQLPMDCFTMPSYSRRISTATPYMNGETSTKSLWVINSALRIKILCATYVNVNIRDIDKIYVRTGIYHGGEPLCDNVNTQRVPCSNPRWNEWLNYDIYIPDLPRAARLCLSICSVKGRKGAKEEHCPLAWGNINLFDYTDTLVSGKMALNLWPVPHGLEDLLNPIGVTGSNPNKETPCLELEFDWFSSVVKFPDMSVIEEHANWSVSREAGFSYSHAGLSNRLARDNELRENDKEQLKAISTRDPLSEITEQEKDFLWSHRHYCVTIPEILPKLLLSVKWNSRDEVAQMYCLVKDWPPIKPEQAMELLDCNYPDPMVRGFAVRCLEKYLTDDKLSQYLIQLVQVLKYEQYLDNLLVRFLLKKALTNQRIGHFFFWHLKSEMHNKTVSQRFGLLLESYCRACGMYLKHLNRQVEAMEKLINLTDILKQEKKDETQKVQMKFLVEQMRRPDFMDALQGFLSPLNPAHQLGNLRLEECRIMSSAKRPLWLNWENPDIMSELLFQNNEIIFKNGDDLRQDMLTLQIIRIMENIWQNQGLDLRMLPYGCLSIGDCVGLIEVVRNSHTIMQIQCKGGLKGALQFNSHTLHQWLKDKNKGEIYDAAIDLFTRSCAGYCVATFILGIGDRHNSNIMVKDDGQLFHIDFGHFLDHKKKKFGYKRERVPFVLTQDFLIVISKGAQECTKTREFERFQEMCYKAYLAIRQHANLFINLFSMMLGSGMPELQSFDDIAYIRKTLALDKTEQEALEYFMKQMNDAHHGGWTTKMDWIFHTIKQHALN
T2 sequence (P27986 whole entry partner): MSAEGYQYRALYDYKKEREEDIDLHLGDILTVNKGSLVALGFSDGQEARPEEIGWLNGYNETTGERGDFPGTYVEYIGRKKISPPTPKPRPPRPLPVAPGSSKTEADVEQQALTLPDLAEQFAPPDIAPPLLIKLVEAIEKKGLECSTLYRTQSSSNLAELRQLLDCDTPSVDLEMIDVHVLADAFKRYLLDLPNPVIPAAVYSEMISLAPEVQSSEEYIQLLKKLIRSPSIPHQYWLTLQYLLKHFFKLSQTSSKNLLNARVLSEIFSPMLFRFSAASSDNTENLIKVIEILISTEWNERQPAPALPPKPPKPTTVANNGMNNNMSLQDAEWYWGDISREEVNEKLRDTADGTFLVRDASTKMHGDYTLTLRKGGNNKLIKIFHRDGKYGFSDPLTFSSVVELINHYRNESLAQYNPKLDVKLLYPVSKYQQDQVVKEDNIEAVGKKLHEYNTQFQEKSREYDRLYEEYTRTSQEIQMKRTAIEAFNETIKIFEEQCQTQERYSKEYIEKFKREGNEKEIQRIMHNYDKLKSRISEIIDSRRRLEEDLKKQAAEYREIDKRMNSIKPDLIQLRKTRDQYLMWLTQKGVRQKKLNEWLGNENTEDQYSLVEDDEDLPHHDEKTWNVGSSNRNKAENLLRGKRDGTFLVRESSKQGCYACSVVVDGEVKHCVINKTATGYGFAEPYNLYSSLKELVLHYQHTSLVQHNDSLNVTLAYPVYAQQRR

On to `CC(C)c1cnnc(Nc2ccc3ncc(-c4cnn(CCCN5C[C@@H](C)N(C(=O)N(C)C)[C@@H](C)C5)c4)cc3n2)c1` [Example 0436], for which the IC50 (in assay [1]; at human PI3Kα protein) was less than 1000 nM in each case.
As for `CCOC(=O)N1CCN(CCCn2cc(-c3cnc4ccc(Nc5cc(C(C)C)cnn5)nc4c3)cn2)CC1` [Example 0437, Ethyl 4-(3-(4-(6-((5-isopropylpyridazin-3-yl)amino)-1,5-naphthyridin-3-yl)-1H-pyrazol-1-yl)propyl)piperazine-1-carboxylate], the IC50 (in assay [1]; at human PI3Kα protein) was less than 1000 nM throughout.
With `CC(=O)N1CC(Cn2cc(-c3cnc4ccc(Nc5cc(C(C)C)cnn5)nc4c3)cn2)C1` [Example 0438, 1-(3-((4-(6-((5-isopropylpyridazin-3-yl)amino)-1,5-naphthyridin-3-yl)-1H-pyrazol-1-yl)methyl)azetidin-1-yl)ethanone], the IC50 (in assay [1]; at human PI3Kα protein) was less than 1000 nM throughout.
With `CCn1cc(-c2cnc3ccc(Nc4cc(C(C)C)cnn4)nc3c2)cn1` [Example 0440, 7-(1-Ethyl-1H-pyrazol-4-yl)-N-(5-isopropylpyridazin-3-yl)-1,5-naphthyridine-2-amine], the IC50 (in assay [1]; at human PI3Kα protein) was less than 1000 nM throughout.
As for `CCCn1cc(-c2cnc3ccc(Nc4cc(C(C)C)cnn4)nc3c2)cn1` [Example 0441], the IC50 (in assay [1]; at human PI3Kα protein) was less than 1000 nM each time.
For `CC(C)c1cnnc(Nc2ccc3ncc(-c4cnn(C(C)C)c4)cc3n2)c1` [Example 0442], the IC50 (in assay [1]; on human PI3Kα protein) was less than 1000 nM throughout.
With `CC(C)c1cnnc(Nc2ccc3ncc(-c4cnn(CCCN5CCN(c6ccccn6)CC5)c4)cc3n2)c1` [Example 0444], the IC50 (in assay [1]; at human PI3Kα protein) was less than 1000 nM throughout.
On to `CC(C)c1cnnc(Nc2ccc3ncc(-c4cnn(CCCN5CCN(c6ccncc6)CC5)c4)cc3n2)c1` [Example 0445], for which the IC50 (in assay [1]; at human PI3Kα protein) was less than 1000 nM each time.
For the molecule `CC(C)c1cnnc(Nc2ccc3ncc(-c4cnn(CCCN5CCN(c6cccnc6)CC5)c4)cc3n2)c1` [Example 0446], the IC50 (in assay [1]; on human PI3Kα protein) was less than 1000 nM each time.
As for `CC(C)c1cnnc(Nc2ccc3nccc(-c4cnn(C)c4)c3n2)c1` [Example 0447, N-(5-isopropylpyridazin-3-yl)-8-(1-methyl-1H-pyrazol-4-yl)-1,5-naphthyridine-2-amine], the IC50 was 1000 to 10000 nM in assay [1] and less than 1000 nM on human PI3Kα protein.
As for `Cc1cnnc(Nc2ccc3nccc(-c4cnn(C)c4)c3n2)c1` [Example 0448, 8-(1-Methyl-1H-pyrazol-4-yl)-N-(5-methylpyridazin-3-yl)-1,5-naphthyridine-2-amine], the IC50 was 1000 to 10000 nM in assay [1] and less than 1000 nM at human PI3Kα protein.
As to `CC(C)c1cnnc(Nc2ccc3ncc(-c4cnn(Cc5cscn5)c4)cc3n2)c1` [Example 0449], the IC50 (in assay [1]; on human PI3Kα protein) was less than 1000 nM in each case.
For the molecule `COc1cncc(-c2nn(C)cc2-c2cnc3ccc(Nc4cc(C(C)C)cnn4)nc3c2)c1` [Example 0451], the IC50 (in assay [1]; at human PI3Kα protein) was less than 1000 nM each time.
Turning to `COc1cccc(-c2nn(C)cc2-c2cnc3ccc(Nc4cc(C(C)C)cnn4)nc3c2)c1` [Example 0452], the IC50 (in assay [1]; at human PI3Kα protein) was less than 1000 nM each time.
As to `COc1ccc(Cn2cc(-c3cnc4ccc(Nc5cc(C(C)C)cnn5)nc4c3)cn2)cn1` [Example 0453, N-(5-isopropylpyridazin-3-yl)-7-(1-((6-methoxypyridin-3-yl)methyl)-1H-pyrazol-4-yl)-1,5-naphthyridine-2-amine], the IC50 (in assay [1]; on human PI3Kα protein) was less than 1000 nM each time.
As to `COc1ncccc1Cn1cc(-c2cnc3ccc(Nc4cc(C(C)C)cnn4)nc3c2)cn1` [Example 0454], the IC50 (in assay [1]; at human PI3Kα protein) was less than 1000 nM in each case.
As for `Cc1cnnc(Nc2ccc3ncc(-c4cn(C)nc4-c4ccc(C#N)nc4)cc3n2)c1` [Example 0457], the results for the IC50 (in assay [1]; at human PI3Kα protein) were 10000 to 50000 nM and less than 1000 nM, respectively.
Consider `COc1ccc(-c2nn(C)cc2-c2cnc3ccc(Nc4cc(C)cnn4)nc3c2)cn1` [Example 0458], for which the IC50 in assay [1] was 10000 to 50000 nM; at human PI3Kα protein, less than 1000 nM.
Taken in the same sequence, the figures for `CC(=O)Nc1ccc(-c2nn(C)cc2-c2cnc3ccc(Nc4cc(C(C)C)cnn4)nc3c2)cn1` [Example 0459] were less than 1000 nM and less than 1000 nM.
On to `CC(C)c1cnnc(Nc2ccc3ncc(-c4cn(C)nc4-c4ccc(N)nc4)cc3n2)c1` [Example 0461, 7-(3-(6-aminopyridin-3-yl)-1-methyl-1H-pyrazol-4-yl)-N-(5-isopropylpyridazin-3-yl)-1,5-naphthyridine-2-amine], for which the IC50 (in assay [1]; on human PI3Kα protein) was less than 1000 nM throughout.
As for `c1cncc(Cn2cc(-c3cnc4ccc(Nc5cc(C6CC6)cnn5)nc4c3)cn2)c1` [Example 0463, N-(5-cyclopropylpyridazin-3-yl)-7-(1-(pyridin-3-ylmethyl)-1H-pyrazol-4-yl)-1,5-naphthyridine-2-amine], the IC50 (in assay [1]; on human PI3Kα protein) was less than 1000 nM each time.
Take `CC(C)c1cnnc(Nc2ccc3ncc(-c4cnn(Cc5ccc(N)nc5)c4)cc3n2)c1` [Example 0464]: the IC50 (in assay [1]; at human PI3Kα protein) was less than 1000 nM throughout.
As to `CC(C)c1cnnc(Nc2ccc3ncc(-c4cnn(CCF)c4)cc3n2)c1` [Example 0466], the IC50 (in assay [1]; at human PI3Kα protein) was less than 1000 nM each time.
In the case of `CC(C)c1cnnc(Nc2ccc3ncc(-c4cnn(CC(F)F)c4)cc3n2)c1` [Example 0467], the IC50 (in assay [1]; at human PI3Kα protein) was less than 1000 nM each time.
In the case of `CC(C)c1cnnc(Nc2ccc3ncc(-c4cnn(CCCCl)c4)cc3n2)c1` [Example 0468], the IC50 (in assay [1]; on human PI3Kα protein) was less than 1000 nM throughout.
With `CC(C)c1cnnc(Nc2ccc3ncc(-c4cn(C)nc4Nc4cccnc4)cc3n2)c1` [Example 0469], the IC50 (in assay [1]; at human PI3Kα protein) was less than 1000 nM in each case.
With `CC(=O)Nc1ccc(Cn2cc(-c3cnc4ccc(Nc5cc(C(C)C)cnn5)nc4c3)cn2)cc1` [Example 0470, N-(4-((4-(6-((5-isopropylpyridazin-3-yl)amino)-1,5-naphthyridin-3-yl)-1H-pyrazol-1-yl)methyl)phenyl)acetamide], the IC50 (in assay [1]; at human PI3Kα protein) was less than 1000 nM each time.
For `CC(=O)N1CCC(n2cc(-c3cnc4ccc(Nc5cc(C(C)C)cnn5)nc4c3)cn2)CC1` [Example 0478, 1-(4-(4-(6-((5-Isopropylpyridazin-3-yl)amino)-1,5-naphthyridin-3-yl)-1H-pyrazol-1-yl)piperidin-1-yl)ethanone], the IC50 (in assay [1]; at human PI3Kα protein) was less than 1000 nM in each case.
Turning to `CC(C)c1cnnc(Nc2ccc3ncc(-c4cnn(C5CCN(CCO)CC5)c4)cc3n2)c1` [Example 0480, 2-(4-(4-(6-((5-Isopropylpyridazin-3-yl)amino)-1,5-naphthyridin-3-yl)-1H-pyrazol-1-yl)piperidin-1-yl)ethanol], the IC50 (in assay [1]; at human PI3Kα protein) was less than 1000 nM each time.
As to `CC(C)c1cnnc(Nc2ccc3ncc(-c4cnn(C(C)(C)C)c4)cc3n2)c1` [Example 0481], the IC50 in assay [1] is less than 1000 nM; on human PI3Kα protein, 1000 to 10000 nM.
As to `CC(C)c1cnnc(Nc2ccc3ncc(-c4cnn(CCC5CCOCC5)c4)cc3n2)c1` [Example 0483], the IC50 (in assay [1]; at human PI3Kα protein) was less than 1000 nM each time.
`COCC(COC)Cn1cc(-c2cnc3ccc(Nc4cc(C(C)C)cnn4)nc3c2)cn1` [Example 0484]: the IC50 (in assay [1]; at human PI3Kα protein) was less than 1000 nM in each case.
